system: T1, NCX1 (Na+-Ca2+ exchanger); experiment: fura-2 Ca2+ influx by reverse NCX activity (Li+ for Na+ substitution) in native rat TG neurons; format: cell-based
T1 construct: gene Slc8a1

SMILES	IC50 [µM]
N=C(N)SCCc1ccc(OCc2ccc([N+](=O)[O-])cc2)cc1 [KB-R7943]	3.08
CCOc1ccc(Oc2ccc(OCc3cc(F)ccc3F)cc2)c(N)c1 [SEA0400, 2-[4-[(2,5-difluorophenyl)methoxy]phenoxy]-5-ethoxyaniline]	0.03
CCOC(=O)C1CSC(Cc2ccc(OCc3ccc([N+](=O)[O-])cc3)cc2)N1 (stereo not drawn) [SN-6]	0.51

From paper PMC3646678, “Sodium-calcium exchangers in rat trigeminal ganglion neurons” (Molecular Pain, 2013)
